# According to patent publication US20130078268A1, “VACCINE COMPOSITIONS AND METHODS OF USE THEREOF” (priority 2010, published 2013):
# Where no end group is shown, it is not given here. [ ]: non-standard residue; d: D form. pGlu = O=C1CC[C@@H](C(=O)O)N1
# Tested on: peptide of SEQ ID NO: 1
# Assay: Titer of antibody to the peptide of SEQ ID NO: 1 by peptide-based ELISA in serum of immunised mice
# Assay type: in vivo
# Conditions: male C57B1 mice; three subcutaneous injections of 100 μg peptide + 100 μg calcium phosphate nanoparticles at 3-week intervals; two weeks after the last injection
# Protocol: Four male mice (8-week-old, C57B1) were given, three subcutaneous injections of vaccine composition comprising 100 μg of the peptide SEQ ID NO: 1 and 100 μg of calcium phosphate nanoparticles at 3-week intervals. As controls, an additional four mice received the vehicle. Two weeks after the last injection, the titer of antibody to the peptide of SEQ ID NO: 1 was assessed by the peptide-based enzyme-linked immunosorbent assay (ELISA). Samples were run in triplicate on ELISA plates coated with the peptide of the SEQ ID NO: 1, which was used as the immunogen. The peptide was bound in solid phase on high binding 96 well plates. Serum was diluted 1:500 and then serially diluted to a final dilution of 1:64,000. Detection of the antibody was obtained using an HRP conjugated secondary antibody (1:5,000) and TMB micro well peroxidase substrate.
# Four male mice (8-week-old, C57B1) were given three intraperitoneal injections of vaccine composition of example 3 at 3-week intervals. As controls, an additional four mice received the vehicle. Two weeks after the last injection, the titer of antibody to the peptide of SEQ ID NO: 1 was assessed by the peptide-based enzyme-linked immunosorbent assay (ELISA) as described in the example 4. […] Thus, the administering vaccine compositions of the invention elicited protective immunity in animals against endogenous peptide of SEQ ID NO: 1.
substance,measurement,value
pGlu-Pro-Pro-Gly-Gly-Ser-Lys-Val-Ile-Leu-Phe ([pGlu]PPGGSKVILF; listed as Homo sapiens) [peptide SEQ ID NO: 1],geometric mean titer of anti-SEQ ID NO: 1 antibodies in serum,"about 70,000"
